Reference: paper PMC8605905 (Oxidative Medicine and Cellular Longevity, 2021)
Entries after “also recorded” stand apart in the source; their conditions may differ.

Columns and labels:
[1] = molecular target: T1, ΔK280 tauRD protein (Homo sapiens, UniProt P10636, DEL597-597); assay: Thioflavin T assay of ΔK280 tauRD aggregation; format: biochemical; details: ΔK280 tauRD 20 μM, compound 1–10 μM, 37°C 48 h; read-out: ΔK280 tauRD aggregation inhibition EC50 (Thioflavin T)
T1 construct: E. coli-derived ΔK280 tauRD protein; made in house; host or cells: E. coli
Experimental: The potential of Congo red and coumarin-chalcone derivatives in inhibiting tau misfolding was assessed using the E. coli-derived ΔK280 tauRD protein [21]. In brief, ΔK280 tauRD protein (20 μM) was incubated with the tested compound (1−10 μM) in buffer (150 mM NaCl, 20 mM Tris-HCl (pH 8.0)) at 37°C for 48 h to form aggregates. Thioflavin T (5 μM) was then added, and the mixture was incubated at room temperature for 25 min. The fluorescence intensity of the samples was measured, and the EC50 was computed as described.

[2] = tested on: Aβ-GFP SH-SY5Y cells; assay: High content analysis of neurite outgrowth in Aβ-GFP cells; format: cell-based, Human; details: 5 μM
Experimental: On day 1, Aβ-GFP or ∆K280 tauRD-DsRed SH-SY5Y cells were plated into 24-well plates (6 × 10^4/well) followed by addition of retinoic acid. On day 2, cells were treated with coumarin-chalcone derivatives (5 or 10 μM) and with doxycycline (5 or 2 μg/ml) to induce the expression of Aβ-GFP or ∆K280 tauRD-DsRed. On day 8, 4% paraformaldehyde, 0.1% Triton X-100, and 3% BSA were used to fix, permeabilize, and block cells, respectively. Subsequently, the cells were stained with TUBB3 (neuronal class III β-tubulin) primary antibody (1 : 1000; Covance, Princeton, NJ, USA) at 4°C overnight. Goat anti-rabbit Alexa Fluor 555 secondary antibody (1 : 1000; Thermo Fisher Scientific) was then added, followed by a 3 h incubation at room temperature. Following staining nuclei with 4′,-6-diamidino-2-phenylindole (DAPI) (0.1 μg/ml; Sigma-Aldrich), the neurons were imaged by using the HCA system and analysed by using the Neurite Outgrowth Application Module (MetaXpress; Molecular Devices).
To monitor the cAMP-mediated signal transduction pathway, CRE-GFP 293 cells in 6-well plates (1 × 10^6/well) were pretreated with kinase inhibitor H-89 (LC Laboratories, Woburn, MA, USA), KN-62 (Cayman Chemical, Ann Arbor, MI, USA), U0126 (LC Laboratories), or wortmannin (LC Laboratories) (10 μM) for 4 h before forskolin or LM-021 (10 μM) addition for 5 h. GFP fluorescence/protein and total/phosphorylated PKA, CaMKII, ERK, PI3K, and CREB levels were examined. In addition, Aβ-GFP or ∆K280 tauRD-DsRed SH-SY5Y cells were treated with retinoic acid (10 μM) on day 1, followed by the addition of LM-021 (5 or 10 μM) and doxycycline (5 or 2 μg/ml) on day 2, as described. Kinase inhibitors (10 μM) were added on day 6. On day 8, the cells were collected for protein expression analysis of BDNF, BCL2 (BCL2 apoptosis regulator), and BAX (BCL2 associated X, apoptosis regulator), and total/phosphorylated PKA, CaMKII, ERK, PI3K, and CREB. Also, cells were stained with DAPI and assessed for neurite outgrowth as described above.

[3] = molecular target: T2, Aβ42 peptide (Homo sapiens, UniProt P05067); assay: Thioflavin T assay of Aβ aggregation; format: biochemical; details: Aβ42 5 μM, compound 5–20 μM, 37°C 48 h; read-out: Aβ aggregation inhibition EC50 (Thioflavin T)
T2 construct: containing Aβ42 peptide (5 μM); purchased AnaSpec; host or cells: synthetic
Experimental: In brief, the tested compound (5–20 μM) was added to a buffer solution (150 mM NaCl, 20 mM Tris-HCl (pH 8.0)) containing Aβ42 peptide (5 μM) and incubated at 37°C for 48 h. Thioflavin T (10 μM) (Sigma-Aldrich) then was added, and the mixture was incubated for 5 min at room temperature. Subsequently, the fluorescence intensity was quantified at 420/485 nm of excitation/emission wavelengths using a FLx800 microplate reader (Bio-Tek, Winooski, VT, USA). EC50 was computed as described.

[4] = tested on: caspase 1; assay: Caspase 1 activity in Aβ-GFP cells; format: cell-based, Human; details: 5 μM, vs untreated cells
Experimental: Aβ-GFP or ∆K280 tauRD-DsRed SH-SY5Y cells were seeded into 6-well plates (5 × 10^5/well) and treated with retinoic acid, coumarin-chalcone derivatives, and doxycycline as previously described. On day 8, cells were collected and lysates were prepared with six freeze/thaw cycles. The supernatant was collected by centrifugation, followed by measurement of the caspase 1 activity in 50 μg aliquots of cell extract using the ICE fluorometric assay kit (BioVision, Milpitas, CA, USA). Following incubation of the mixture at 37°C for 2 h, fluorescence was measured with excitation/emission wavelengths at 400/505 nm (FLx800 fluorescence microplate reader). In addition, the collected cells were lysed by sonication. Acetylcholinesterase (AChE) activity in the supernatant was determined in 10 μg aliquots of cell extracts using the AChE activity assay kit (Sigma-Aldrich) according to the manufacture's protocol. Finally, the absorbance at 412 nm was measured using a Multiskan GO spectrophotometer (Thermo Fisher Scientific).

T2 sequence (P05067 672-713 limits assumed): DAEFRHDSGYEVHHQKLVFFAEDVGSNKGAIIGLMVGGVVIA
T1 sequence (P10636 with tags, fused parts or gaps DEL597-597): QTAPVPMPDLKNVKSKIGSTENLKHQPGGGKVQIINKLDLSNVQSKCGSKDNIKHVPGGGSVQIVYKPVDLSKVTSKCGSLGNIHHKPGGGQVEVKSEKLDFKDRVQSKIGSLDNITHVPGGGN

SMILES: CN(C)c1ccc(/C=C/C(=O)c2c(O)c3ccccc3oc2=O)cc1 [LM-021, (E)-3-(3-(4-(dimethylamino)phenyl)acryloyl)-4-hydroxy-2H-chromen-2-one]
- EC50 [1]: 10 µM
- Neurite length, processes, and branches [2]: successfully ameliorated; also recorded: salvaged
- EC50 [3]: 14 µM
- Caspase 1 activity [4]: reduced
